In patent US20250304928A1, “AN OMEGA-TRANSAMINASE MUTANT BASED ON […] SEQUENCE RECONSTRUCTION” (priority 2021, published 2025):

Columns and labels:
[1] = target: Aspergillus terreus ω-transaminase, wild type (WT-AT), SEQ ID NO. 2 (Aspergillus terreus, UniProt Q0C8G1); assay: Enzyme kinetic parameters of wild type ω-transaminase (WT-AT); type: biochemical; details: PBS 50 mM, pH 8.0, 0.01 mM PLP
Method: The wild-type ω-transaminase from Aspergillus terreus has an amino acid sequence as shown in SEQ ID NO. 2, and has a gene sequence as shown in SEQ ID NO. 1.
(§1) The enzyme activity of wild type and mutant ω-transaminase at different concentrations was determined by enzyme activity assay. The reaction rates V for different substrates as well as different substrate concentrations [S] were brought into the Michaelis-Menten equation V=Vmax×[S]/(Km+[S]), nonlinear curve fit was performed using Origin 8.0 software, and the enzyme kinetic parameters Km and Vmax were calculated for wild type and mutants; the conversion number kcat and catalytic efficiency kcat/Km were calculated for wild type and mutants from the equation kcat=Vmax/[E], where [E] was the molar concentration of the enzyme.

[2] = target: T1, Aspergillus terreus ω-transaminase mutant Ancata-124 (D5E-A12Q-I17V-S20A-T21S-E22A-T23S-A42H-I77L-T78S-T85A-R90K-D96E-Q97E-E104D-T130S-R130K-I135L-138insN-V143I (Aspergillus terreus, UniProt Q0C8G1, A12Q/A195S/A246V/A313P/A42H/D153E/D5E/D96E/E104D/E22A/E248R/E323S/F250N/F258V/G292D/H210N/I135L/I17V/I295V/I77L/INS138N/INS325KS/L263M/M154V/M288K/N245D/N322E/N325S/Q236E/Q294K/Q97E/R131K/R266Q/R324A/R90K/S20A/T130S/T21S/T23S/T284S/T78S/T85A/V143I/V157T/V162I/V163I)); assay: Enzyme kinetic parameters of mutant ω-transaminase Ancata-124; type: biochemical
T1 construct: ancestral reconstruction Ancata-124
Method: as §1

[3] = target: T2, Aspergillus terreus ω-transaminase mutant Ancata-101 (D5E-A12Q-I17V-S20A-T21S-E22A-T23S-A42H-I77L-T78S-T85S-L87M-R90K-D96E-Q97E-E104D-T130S-R131K-D134E-I135L-13 (Aspergillus terreus, UniProt Q0C8G1, A12Q/A174S/A195S/A246V/A313P/A42H/D134E/D153E/D5E/D96E/E104D/E22A/E248R/E323S/F250N/F258V/G292D/H210N/I135L/I175M/I17V/I295V/I77L/INS138N/INS325KKSG/L87M/M288K/N245D/N322E/N325S/Q236E/Q294K/Q97E/R131K/R266Q/R324A/R90K/S20A/T130S/T21S/T23S/T284S/T78S/T85S/V143I/V157T/V162I/V163I/V188T)); assay: Enzyme kinetic parameters of mutant ω-transaminase Ancata-101; type: biochemical
T2 construct: ancestral reconstruction Ancata-101
Method: as §1

C[C@@H](N)c1ccccc1 [4] = assay: as above; type: biochemical, Aspergillus terreus; details: other: PBS 50 mM, pH 8.0, 0.01 mM PLP
CC(=O)C(=O)O [5] = assay: as above; type: biochemical, Aspergillus terreus; details: other: PBS 50 mM, pH 8.0, 0.01 mM PLP
C[C@@H](N)c1ccccc1 [6] = assay: Enzyme kinetic parameters of mutant ω-transaminase Ancata-124; type: biochemical, Aspergillus terreus; details: other: PBS 50 mM, pH 8.0, 0.01 mM PLP, 25.0 °C
CC(=O)C(=O)O [7] = assay: as above; type: biochemical, Aspergillus terreus; details: other: PBS 50 mM, pH 8.0, 0.01 mM PLP, 25.0 °C

Compound: CC(=O)C(=O)O [pyruvate, pyruvic acid]
- kcat (pyruvate) [1]: 0.50 ± 0.01 s⁻¹
- kcat/Km (pyruvate) [1]: 2220 M⁻¹ s⁻¹
- Km ([1]; read-out: Km (pyruvate)): 230 ± 20 µM
- kcat (pyruvate) ([2]; PBS 50 mM, pH 8.0, 0.01 mM PLP): 0.74 ± 0.03 s⁻¹
- kcat/Km (pyruvate) ([2]; PBS 50 mM, pH 8.0, 0.01 mM PLP): 790 M⁻¹ s⁻¹
- catalytic efficiency for pyruvic acid compared with wild type ([2]; in words, versus wild type): lower than that of the wild type
- kcat (pyruvate) ([3]; PBS 50 mM, pH 8.0, 0.01 mM PLP): 1.50 ± 0.03 s⁻¹
- kcat/Km (pyruvate) ([3]; PBS 50 mM, pH 8.0, 0.01 mM PLP): 1300 M⁻¹ s⁻¹
- catalytic efficiency for pyruvic acid compared with wild type ([3]; in words, versus wild type): lower than that of the wild type

Compound: C[C@@H](N)c1ccccc1 [α-MBA, (R)-(+)-α-methylbenzylamine]
- Km (α-MBA) compared with wild type ([2]; in words, versus wild type): slightly higher than that of the wild type
- Km (α-MBA) compared with wild type ([3]; in words, versus wild type): slightly higher than that of the wild type

Compound: Aspergillus terreus ω-transaminase mutant Ancata-101 (D5E-A12Q-I17V-S20A-T21S-E22A-T23S-A42H-I77L-T78S-T85S-L87M-R90K-D96E-Q97E-E104D-T130S-R131K-D134E-I135L-138insN-V143I-D153E-V157T-V162I-V163I-A174S-I175M-V188T-A195S-H210N-Q236E-N245D-A246V-E248R-F250N-F258V-R266Q-T284S-M288K-G292D-Q294K-I295V-A313P-N322E-E323S-R324A-N325S-325insKKSG), SEQ ID NO. 4 (Aspergillus terreus NIH2624; A12Q/A174S/A195S/A246V/A313P/A42H/D134E/D153E/D5E/D96E/E104D/E22A/E248R/E323S/F250N/F258V/G292D/H210N/I135L/I175M/I17V/I295V/I77L/INS138N/INS325KKSG/L87M/M288K/N245D/N322E/N325S/Q236E/Q294K/Q97E/R131K)
- Km (C[C@@H](N)c1ccccc1 [4]): 280 ± 30 µM
- Km (CC(=O)C(=O)O [5]): 1150 ± 20 µM

Compound: Aspergillus terreus ω-transaminase mutant Ancata-124 (D5E-A12Q-I17V-S20A-T21S-E22A-T23S-A42H-I77L-T78S-T85A-R90K-D96E-Q97E-E104D-T130S-R130K-I135L-138insN-V143I-D153E-M154V-V157T-V162I-V163I-A195S-H210N-Q236E-N245D-A246V-E248R-F250N-F258V-L263M-R266Q-T284S-M288K-G292D-Q294K-I295V-A313P-N322E-E323S-R324A-N325S-325insKS), SEQ ID NO. 6 (Aspergillus terreus NIH2624; A12Q/A195S/A246V/A313P/A42H/D153E/D5E/D96E/E104D/E22A/E248R/E323S/F250N/F258V/G292D/H210N/I135L/I17V/I295V/I77L/INS138N/INS325KS/L263M/M154V/M288K/N245D/N322E/N325S/Q236E/Q294K/Q97E/R131K/R266Q/R324A/)
- Km (C[C@@H](N)c1ccccc1 [6]): 280 ± 10 µM
- Km (CC(=O)C(=O)O [7]): 930 ± 10 µM
